{
  "source": "patent US20140051650A1",
  "about": "“VAGINAL COMPOSITIONS BASED ON ALKYL POLYGLUCOSIDES” (EFFIK S.A., priority 2011, published 2014)",
  "type_in_all_cases": "cell-based",
  "settings_in_all_cases": "substance alone",
  "key": {"[1]": {"system": "Streptococcus agalactiae", "assay": "Minimum Bactericidal Concentration (MBC) in liquid medium against Streptococcus agalactiae", "experimental": "Three Streptococcus agalactiae strains isolated from vaginal-rectal buffers during the prenatal check-ups were used for the assay. The strains were named “strain 2”, “strain 10” and “strain 11”. Isolation was carried out on a blood agar medium and identification was obtained through biochemical tests of the API 20 Strep (Bio-Mérieux) system and through the identification of the Lancefield group.\nThe experiments were also carried out on a Streptococcus agalactiae ATCC 12386 strain.\n“Brain Heart Infusion broth” (BHIb, Becton Dickinson) medium was used for the Streptococcus agalactiae culture, “Mueller-Hinton broth” (M-Hb) medium after adding 2% “laked” horse blood and the “Mueller-Hinton agar” (M-Ha) medium with addition of defibrinated horse blood at 5% (Oxoid) were used for the antimicrobial activity assays.\nThe Streptococcus agalactiae strains were cultured in BHIb broth for 24 hours at 37° C. Immediately before the assay, the bacterial suspensions were diluted up to obtaining turbidity equivalent to 0.5 McFarland standard. 50 μl of a further 1:100 dilution in broth+blood at 2% were distributed in the wells of the microtitre plates. The presumed titre of the inoculum carried out through this procedure is of about 5×10^4 ufc (units forming colony)/well.\nThe bacterial cultures were also diluted serially according to a value 10 (up to a dilution value equivalent to 10^−7) and an aliquot of 0.1 ml of each dilution was double streaked on M-Ha +blood 5% for determining the actual titre to be used, subsequently, to determine the MBC (Minimum Bactericidal Concentration).\nThe assay was carried out in 96-well microtitre plates. 50 μl of M-Hb at normal concentration were deposited in the first well of each of the 5 rows. Starting from the first well of each row, […] volumes were transferred from each well to the subsequent one 10 times, thus obtaining a series of dilutions after doubling. The 12th well of each row was kept substance-free as a positive control of the bacterial growth.\nSubsequently, 50 μl of bacterial inoculum of M-Hb+double concentration blood (4%) were deposited in all wells of the plate, except for the 11th of each row. Only M-Hb+double concentration blood but bacteria-free, were deposited in the 11th well, with the aim of providing negative control for each row. The described scheme was used for the assay of each of the three Streptococcus agalactiae strains.\n(§1) Immediately after determining the value of the MIC for each substance, a volume equivalent to 50 μl was taken from each well and streaked on the surface of plates containing the solid medium. The plates were subsequently incubated at the conditions indicated for each microbial strain. After incubation at 37° C. for 24 hours, the number of colonies grown on the medium surface was counted thus determining the number of bacteria that survived after 24 hours of contact with the substance at the concentration present in the well. The MBC value defined as the lowest concentration of each substance capable of reducing the bacterial load by 99.9% in the previously defined assay conditions was determined through comparison between the number of bacteria that survived in each well and that of the bacterial inoculum deposited initially."}, "[2]": {"system": "Lactobacillus jensenii NCIMB 13279", "assay": "MIC against Lactobacillus jensenii", "experimental": "The vaginal lactobacillus strains used are the NCIMB 4505 strain of Lactobacillus crispatus, the NCIMB 13279 strain of Lactobacillus jensenii and NCIMB 702820 strain of Lactobacillus gasseri. [table] The other assayed microbial strains were cultured in the liquid media and in the incubation conditions specified in table A, following the operating procedure described above. The assay was carried out in 96-well microtitre plates. 50 μl of substance solution at the “mother” concentration alongside 50 μl of liquid medium at double concentration were deposited in the first well of each of the 8 rows while 50 μl of liquid medium at normal concentration were deposited in the remaining 11 wells. Starting from the first well of each row, 50 μl volumes were transferred from each well to the subsequent one 10 times, thus obtaining a series of 11 dilutions after doubling. The 12th well of each row was kept substance-free as a function of positive control of the bacterial growth. Subsequently, 50 μl of diluted bacterial inoculum as specified previously were deposited in all wells of the plate, except for the 11th of each row. Only the liquid medium at single concentration but bacteria-free, was deposited in the 11th well, with the aim of providing negative control for each row. The described scheme was used for the assay with each of the assayed microbial strains. […]"}, "[3]": {"system": "Neisseria gonorrhoeae ATCC 43069", "assay": "MIC against Neisseria gonorrhoeae", "experimental": "The Gardnerella vaginalis ATCC 14018 strain, the Neisseria gonorrhoeae ATCC 43069 strain and the Candida albicans ATCC 10231 strain were also used for the experiment.\nThe other assayed microbial strains were cultured in the liquid media and in the incubation conditions specified in table A, following the operating procedure described above.\nThe assay was carried out in 96-well microtitre plates. 50 μl of substance solution at the “mother” concentration alongside 50 μl of liquid medium at double concentration were deposited in the first well of each of the 8 rows while 50 μl of liquid medium at normal concentration were deposited in the remaining 11 wells. Starting from the first well of each row, 50 μl volumes were transferred from each well to the subsequent one 10 times, thus obtaining a series of 11 dilutions after doubling. The 12th well of each row was kept substance-free as a function of positive control of the bacterial growth.\nSubsequently, 50 μl of diluted bacterial inoculum as specified previously were deposited in all wells of the plate, except for the 11th of each row. Only the liquid medium at single concentration but bacteria-free, was deposited in the 11th well, with the aim of providing negative control for each row. The described scheme was used for the assay with each of the assayed microbial strains. […]"}, "[4]": {"system": "Neisseria gonorrhoeae ATCC 43069", "assay": "MBC against Neisseria gonorrhoeae", "experimental": "as §1, with “The Gardnerella vaginalis ATCC 14018 strain, the Neisseria gonorrhoeae ATCC 43069 strain and the Candida albicans ATCC 10231 strain were also used for the experiment. [table] The other assayed microbial strains were cultured in the liquid media and in the incubation conditions specified in table A, following the operating procedure described above. Immediately” for “Immediately”"}},
  "data": [
    {"substance": "caprylyl/capryl glucoside/C8-C10 alkyl polyglucoside [Substance A1]", "values": [
      {"measurement": "MBC", "setting": "[1]; ATCC 12386 in M-Hb blood 2%", "value": 0.097},
      {"measurement": "MBC", "setting": "[1]; Strain 2 in M-Hb blood 2%", "value": 0.097},
      {"measurement": "MBC", "setting": "[1]; Strain 10 in M-Hb blood 2%", "value": 0.194},
      {"measurement": "MBC", "setting": "[1]; Strain 11 in M-Hb blood 2%", "value": 0.097},
      {"measurement": "MIC", "setting": "[2]", "value": 0.193, "unit": "%"}
    ]},
    {"substance": "lauryl glucoside/C12-C16 alkyl polyglucoside [Substance A2]", "values": [
      {"measurement": "MBC", "setting": "[1]; ATCC 12386 in M-Hb blood 2%", "value": 0.0097},
      {"measurement": "MBC", "setting": "[1]; Strain 2 in M-Hb blood 2%", "value": 0.0097},
      {"measurement": "MBC", "setting": "[1]; Strain 10 in M-Hb blood 2%", "value": 0.019},
      {"measurement": "MBC", "setting": "[1]; Strain 11 in M-Hb blood 2%", "value": 0.0097},
      {"measurement": "MIC", "setting": "[3]", "value": "≦0.0012%"},
      {"measurement": "MBC", "setting": "[4]", "value": "≦0.0012%"},
      {"measurement": "MIC", "setting": "[2]", "value": 0.077, "unit": "%"}
    ]}
  ]
}
